Reference: the supplement of paper PMC11997997

Legend:
[1] = test system: murine bone marrow-derived macrophages; assay: area under cytotoxicity dose-response curve (AUC (% cytotoxicity x dose, relative)); higher = more cytotoxic; settings: duration: 6 days; dose range: 0.13-80 uM, 8 points
Method in brief: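 Using opaque 384-well plates, primary murine bone marrow-derived macrophages were treated for 6 days at 37 °C in 5% CO2 with an 8-point, 2.5-fold dilution series spanning final concentrations of 80–0.13 μM. After CellTiter-Glo (Promega) luminescence readout of viability, percent cytotoxicity was normalised to vehicle and positive control wells. The reported value is the area under the dose–response curve for cytotoxicity, derived in GraphPad Prism version 10.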

[2] = test system: Mycobacterium tuberculosis CDC1551 (intracellular, in murine BMDM); assay: area under intracellular growth-inhibition dose-response curve (AUC (% inhibition x dose, relative)); higher = more potent; settings: duration: 6 days; dose range: 0.13-80 uM, 8 points
Method in brief: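 Primary murine bone marrow-derived macrophages in 384-well opaque plates were infected 24 h after seeding with luciferase-expressing M. tuberculosis CDC1551 at multiplicity of infection 1 for 1 h. They were then treated with an 8-dose, 2.5-fold series (final 80–0.13 μM) for 6 days. Growth was read by Bright-Glo luciferin assay and normalised to a reference drug control and the lowest-concentration wells. The value is the area under the growth-inhibition dose–response curve, calculated in GraphPad Prism.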

Compound	area under cytotoxicity dose-response curve [1]	area under intracellular growth-inhibition dose-response curve [2]
O=C(NCc1ccc2c(c1)OCO2)c1ccc(Br)o1	76.4	174
Cc1nn(CC(=O)NC2C(=O)N3C(C(=O)O)=C(CSc4nnnn4C)CSC23)cc1Br (centres undefined)	30.6	236
O=C(Nc1ccc(NC(=S)NC(=O)c2ccco2)cc1)c1ccccc1	40	192
CSc1ncccc1C(=O)OCC(=O)c1ccc[nH]1	< 0	159
COc1ccc(CCNC(=O)c2cc(-c3ccccn3)nc3ccccc23)cc1	17.5	40.6
O=C(N/N=C/c1ccc(OCc2cnc(Cl)s2)cc1)c1ccncc1	48.7	238
O=C(NCc1ccccc1)c1cc2ccccc2o1	71.7	197
Cc1oc(-c2cccs2)nc1CSCC(=O)N1CCC2(CC1)OCCO2	37.4	48.9
CCOc1ccc(C(=O)CCC(=O)NNC(=O)c2ccncc2)cc1	49	119
CCc1ccc(C(=O)/C=C/c2ccc([N+](=O)[O-])o2)cc1	5.66	142
N#C/C(=N/Nc1ccc(OC(F)(F)F)cc1)C(N)=S	90	62.6
O=C(NCc1cccc(Cl)c1)c1cccc(S(=O)(=O)N2CCCCC2)c1	< 0	60.1
O=C(c1ccc2ccccc2c1)N1CCCC1	32.9	222
C/C(=N/NC(=O)c1ccncc1)c1ccccc1	< 0	243
O=C(NCc1ccccc1Cl)c1ccc(Br)o1	< 0	120
Cc1cccc(C)c1-n1c(C)cc(/C=N/NC(=O)c2ccncc2)c1C	32.2	252
CCOc1ccc(OCCCC(=O)NNC(=O)c2ccncc2)cc1	< 0	272
C/C(CC(=O)NCCN1CCOCC1)=N\NC(=O)c1ccncc1	12.5	206
CCCCNC(=O)/C=C/c1cccs1	7.87	191
NC(=S)N/N=C/c1ccc(/C=N/NC(N)=S)cc1	20.6	258
O=C(O)C(=O)O.O=[N+]([O-])c1ccc(N2CCN(Cc3ccc([N+](=O)[O-])o3)CC2)cc1	45.2	245

Compound	area under cytotoxicity dose-response curve [1]	area under intracellular growth-inhibition dose-response curve [2]
O=C(/C=C/c1cccs1)NCc1cccs1	34.6	240
O=C(NCc1ccc(F)cc1)c1ccc(Br)o1	42.3	228
CC1CCN(Cc2nc(-c3ccccc3)no2)CC1.Cl	111	175
Cc1ccc(-c2cc(-c3ccccc3)cc(-c3ccccc3)[n+]2-c2ccccc2)cc1.[O-][Cl+3]([O-])([O-])[O-]	23.7	91.8
O=C(NNC(=O)c1ccc(-c2ccc([N+](=O)[O-])cc2)o1)c1ccncc1	40.4	264
Cc1ccc(C(=O)NC2CCCCC2)cc1	43.3	228
Cc1ccc(/C=N/NC(=O)C2COc3ccccc3O2)s1 (centres undefined)	< 0	196
C/C(=N\NC(N)=S)c1ccccc1	45.3	219
O=C(COC(=O)C1COc2ccccc2O1)Nc1cccc(F)c1 (centres undefined)	< 0	46.1
Cc1ccc(S(=O)(=O)Nc2c(C)n(C)n(-c3ccccc3)c2=O)cc1C(=O)OC(C)C(=O)c1ccccc1 (centres undefined)	6.34	17
Cc1ccc(S(=O)(=O)N2CCN(C(=O)c3cc(S(=O)(=O)N4CCOCC4)c(Cl)cc3Cl)CC2)cc1	21.2	75.1
Cc1cccc(Cn2ccc(NC(=O)c3ccc4c(c3)OCO4)n2)c1	85.5	133
CN(CC(=O)Nc1ccccc1Br)C(=O)c1ccccc1Sc1ccccc1C#N	24.4	45.3
Cc1nnc(SCC2=C(C(=O)O)N3C(=O)C(NC(=O)COc4ccc(F)cc4)C3SC2)s1 (centres undefined)	2.64	212
O=C(NCCN1CCOCC1)c1cc([N+](=O)[O-])cc([N+](=O)[O-])c1	8.42	168
CC(NC(=O)c1cc2ccccc2o1)c1cccs1 (centres undefined)	< 0	257
CC(=O)c1ccc(NC(=S)Nc2ccc(N3CCOCC3)cc2)cc1.Cl	40.4	260
CC(/C=C/c1ccccc1)=N\NC(N)=S	31.1	266
COC(=O)c1cccc(/C=N/NC(N)=S)c1O	32.1	144
CCC(=O)NC(=S)Nc1ccc(NC(=S)NC(=O)c2ccc(C)cc2)cc1	11.9	265
CN(C)c1ccc(Nc2ncnc3ccc(Br)cc23)cc1	33.3	121

Compound	area under cytotoxicity dose-response curve [1]	area under intracellular growth-inhibition dose-response curve [2]
C/C(=N/NC(N)=S)c1ccc(Br)s1	< 0	268
CC(C)(C)C(=O)N1CCN(c2ccc(NC(=O)c3ccc([N+](=O)[O-])o3)cc2)CC1	104	105
O=C(NCCc1ccc(F)cc1)NC12CC3CC(CC(C3)C1)C2	60.1	190
O=C(c1cc2ccccc2o1)N1CCN(Cc2ccc3c(c2)OCO3)CC1	68.3	172
COc1ccc(N2C(C)=CC(=Cc3sc4ccccc4[n+]3C)C=C2C)cc1.[I-]	87.2	< 0
CC[N+](C)(CC)CCCCOc1ccc2c(c1)C(=O)c1cc(OCCCC[N+](C)(CC)CC)ccc1-2.[I-]	51.3	175
O=C(Nc1ccc(N2CCN(C(=O)c3ccc(Cl)cc3)CC2)cc1)c1ccc([N+](=O)[O-])o1	34.5	246
O=C(O)/C=C\C(=O)O.OC(CCCN1CCCCC1)(c1ccccc1)c1ccc(C(F)(F)F)cc1 (centres undefined)	32.3	214
COc1ccc(CNc2nc3nc4c(c(O)n3n2)CCC4)cc1	15.2	140
O=C(c1ccc([N+](=O)[O-])o1)N1CCN(c2nc3c(F)cc(F)cc3s2)CC1	161	20.8
COc1ccc(C/C(C)=N/NC(=O)c2ccncc2)cc1	40.9	261
CC[C@@H](C)[C@@H]1CN([C@@H](CN2CCC[C@H]2CN2C(N)=NC[C@H]2C(C)C)C(C)C)C(=N)N1CCCC1CCCC1	32.4	191
CCC(=O)NC(=S)Nc1ccc(NC(=O)c2ccc(Br)o2)cc1	58.2	211
CCCC(=O)N1CCN(c2ccc(NC(=O)c3ccc([N+](=O)[O-])o3)cc2)CC1	129	107
C[n+]1c2ccccc2nc2ccc(NCCO)cc21.[O-][Cl+3]([O-])([O-])[O-]	< 0	107
CC(NC(=O)COC(=O)c1ccc(N2CCCC2=O)cc1)c1ccc(F)cc1 (centres undefined)	< 0	37.5
O=C(CC1CCCCC1)NCc1ccccn1	3.91	222
Cc1ccc(C(=O)Sc2cccccc2=O)cc1	143	< 0
Cc1ccc(S(=O)(=O)c2ccc([N+](=O)[O-])cn2)cc1	102	< 0
S=C(Nc1ccc(Oc2ccccc2)cc1)NC1CCCCCC1	210	155
